In ChEMBL document CHEMBL1201862, “PubChem BioAssay data set” (2004):
Active and inactive are the calls of the source.

How the values were obtained:
Cytochrome P450 2D6 = Cytochrome P450 2D6 (Homo sapiens, UniProt P10635);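 further: CYP2D6 member of a cytochrome P450 panel assay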
Cytochrome P450 3A4 = Cytochrome P450 3A4 (Homo sapiens, UniProt P08684);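 further: CYP3A4 tested as one member of a cytochrome P450 panel screen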
Cytochrome P450 2C19 = Cytochrome P450 2C19 (Homo sapiens, UniProt P33261); assay: Cytochrome panel assay with activity outcomes. Panel member name: p450-cyp2c19 Compounds with AC50 equal or less than 10 uM are considered active; format: functional; conditions: read-out: AC50
Cytochrome P450 2C9 = Cytochrome P450 2C9 (Homo sapiens, UniProt P11712)
[1] = target: T1, Corticotropin-releasing factor receptor 2/Corticotropin-releasing factor-binding protein (Homo sapiens, UniProt P24387+Q13324); assay: activators of CRF receptor 2 with binding protein – uHTS hits, confirmation (AID 602473); format: functional; conditions: read-out: EC50_Mean
T1 sequence (Q13324 whole entry): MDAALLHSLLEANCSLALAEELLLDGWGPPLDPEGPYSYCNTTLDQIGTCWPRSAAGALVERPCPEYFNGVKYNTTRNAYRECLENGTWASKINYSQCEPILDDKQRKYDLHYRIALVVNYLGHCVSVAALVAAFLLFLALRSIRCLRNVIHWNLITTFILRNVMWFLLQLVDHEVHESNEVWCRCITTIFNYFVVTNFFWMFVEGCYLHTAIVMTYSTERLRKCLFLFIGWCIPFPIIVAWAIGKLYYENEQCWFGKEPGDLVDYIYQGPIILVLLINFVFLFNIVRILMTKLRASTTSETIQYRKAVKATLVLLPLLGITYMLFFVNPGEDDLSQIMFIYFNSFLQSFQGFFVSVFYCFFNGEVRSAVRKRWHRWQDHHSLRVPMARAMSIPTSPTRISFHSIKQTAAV
T1 sequence (P24387 whole entry): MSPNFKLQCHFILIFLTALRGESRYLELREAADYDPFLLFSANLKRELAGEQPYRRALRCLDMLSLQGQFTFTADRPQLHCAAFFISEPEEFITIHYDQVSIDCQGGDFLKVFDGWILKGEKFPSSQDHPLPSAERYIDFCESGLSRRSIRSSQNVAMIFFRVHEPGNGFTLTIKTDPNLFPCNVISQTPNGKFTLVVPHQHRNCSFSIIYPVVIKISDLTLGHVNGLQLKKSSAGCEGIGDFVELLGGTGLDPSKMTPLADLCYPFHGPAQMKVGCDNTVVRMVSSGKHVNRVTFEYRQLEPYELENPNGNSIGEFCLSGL

[2] = target: T1, Corticotropin-releasing factor receptor 2/Corticotropin-releasing factor-binding protein; assay: Dose Response confirmation of uHTS hits for small molecule antagonists of the CRF-binding protein and CRF-R2 receptor complex.; format: functional; conditions: read-out: IC50_Mean
[3] = system: Streptococcus sp. 'group A'; assay: growth inhibition of control SK(-) GAS strain, dose response, counter-screen for streptokinase expression inhibitor project, luminescence, kanamycin, BacTiterGlo, confirmation (AID 1900); format: functional, organism-based
Streptokinase A = target: T2, Streptokinase A (Streptococcus pyogenes serotype M1, UniProt P10520); assay: S. pyogenes streptokinase expression inhibitors, potency, dose response, plasminogen activation absorbance, OD405 (AID 1914); format: functional, Streptococcus pyogenes M1 GAS;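 further: secreted streptokinase activity via plasminogen activation per viability signal from cell pellet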
T2 sequence (P10520 whole entry): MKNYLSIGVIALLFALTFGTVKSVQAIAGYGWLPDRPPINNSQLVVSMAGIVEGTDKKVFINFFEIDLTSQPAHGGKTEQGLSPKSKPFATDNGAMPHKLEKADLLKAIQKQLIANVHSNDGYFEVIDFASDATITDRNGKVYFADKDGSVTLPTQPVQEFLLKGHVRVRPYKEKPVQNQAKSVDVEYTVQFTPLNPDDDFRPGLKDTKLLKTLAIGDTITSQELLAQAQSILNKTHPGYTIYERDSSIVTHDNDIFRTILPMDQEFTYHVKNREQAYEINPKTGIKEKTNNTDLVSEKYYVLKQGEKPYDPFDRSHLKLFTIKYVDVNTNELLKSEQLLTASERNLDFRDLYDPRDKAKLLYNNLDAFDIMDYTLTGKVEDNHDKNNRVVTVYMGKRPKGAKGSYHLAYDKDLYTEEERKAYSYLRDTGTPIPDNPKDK

Streptococcus = assay: Group A Streptococcus viability loss, dose response, counter-screen for streptokinase expression inhibitor project, luminescence, BacTiterGlo (AID 1915); format: functional, organism-based;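 further: potency for reduction of bacterial viability or growth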
[4] = target: T3, Heat shock factor protein 1 (Mus musculus, UniProt P38532); assay: inhibition of MG132-induced HSE-luciferase signal, confirmation, cell-based, NIH3T3, luminescence, dose retest (AID 2382); format: functional;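 further: NIH3T3 fibroblasts with HSF1-driven luciferase reporter stressed by proteasome inhibitor MG132; luminescence from HSF1-driven luciferase expression after 8 hours of MG132 stress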
T3 sequence (P38532 whole entry): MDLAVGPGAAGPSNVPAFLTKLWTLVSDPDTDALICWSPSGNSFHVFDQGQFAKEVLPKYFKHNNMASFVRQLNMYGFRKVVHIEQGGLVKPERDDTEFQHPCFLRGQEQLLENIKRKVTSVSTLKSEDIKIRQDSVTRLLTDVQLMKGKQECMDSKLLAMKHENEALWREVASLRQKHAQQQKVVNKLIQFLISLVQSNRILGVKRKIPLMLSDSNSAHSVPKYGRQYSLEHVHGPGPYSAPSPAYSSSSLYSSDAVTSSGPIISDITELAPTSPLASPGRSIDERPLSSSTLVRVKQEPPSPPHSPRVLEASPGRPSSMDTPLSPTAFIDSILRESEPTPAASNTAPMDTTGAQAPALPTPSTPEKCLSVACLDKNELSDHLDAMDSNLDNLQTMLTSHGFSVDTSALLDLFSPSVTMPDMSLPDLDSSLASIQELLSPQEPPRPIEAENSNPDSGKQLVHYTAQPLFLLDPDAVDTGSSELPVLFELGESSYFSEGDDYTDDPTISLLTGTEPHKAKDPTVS

[5] = Shn3 3'UTR reporter inhibitors, dose response, cell-based, Clone20 osteoblasts, firefly luciferase, cherry-picked (AID 624132); format: functional;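 further: firefly luciferase luminescence from reporter carrying the Shn3 3'UTR in osteoblasts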

Chain of Cytochrome P450 3A4 (P08684 whole entry): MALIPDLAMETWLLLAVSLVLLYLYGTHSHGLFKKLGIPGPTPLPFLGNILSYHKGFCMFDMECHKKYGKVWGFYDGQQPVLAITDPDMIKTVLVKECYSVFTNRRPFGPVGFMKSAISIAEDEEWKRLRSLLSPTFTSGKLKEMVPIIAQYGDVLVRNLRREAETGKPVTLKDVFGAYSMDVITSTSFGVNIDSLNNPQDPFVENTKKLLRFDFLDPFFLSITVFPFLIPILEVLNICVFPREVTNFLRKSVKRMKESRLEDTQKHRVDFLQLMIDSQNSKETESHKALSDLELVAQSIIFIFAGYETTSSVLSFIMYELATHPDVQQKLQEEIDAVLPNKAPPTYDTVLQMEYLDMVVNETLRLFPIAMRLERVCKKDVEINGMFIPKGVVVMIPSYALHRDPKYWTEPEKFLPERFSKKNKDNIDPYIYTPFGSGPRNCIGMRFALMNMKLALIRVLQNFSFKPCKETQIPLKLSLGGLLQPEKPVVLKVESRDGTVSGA
Chain of Cytochrome P450 2C19 (P33261 whole entry): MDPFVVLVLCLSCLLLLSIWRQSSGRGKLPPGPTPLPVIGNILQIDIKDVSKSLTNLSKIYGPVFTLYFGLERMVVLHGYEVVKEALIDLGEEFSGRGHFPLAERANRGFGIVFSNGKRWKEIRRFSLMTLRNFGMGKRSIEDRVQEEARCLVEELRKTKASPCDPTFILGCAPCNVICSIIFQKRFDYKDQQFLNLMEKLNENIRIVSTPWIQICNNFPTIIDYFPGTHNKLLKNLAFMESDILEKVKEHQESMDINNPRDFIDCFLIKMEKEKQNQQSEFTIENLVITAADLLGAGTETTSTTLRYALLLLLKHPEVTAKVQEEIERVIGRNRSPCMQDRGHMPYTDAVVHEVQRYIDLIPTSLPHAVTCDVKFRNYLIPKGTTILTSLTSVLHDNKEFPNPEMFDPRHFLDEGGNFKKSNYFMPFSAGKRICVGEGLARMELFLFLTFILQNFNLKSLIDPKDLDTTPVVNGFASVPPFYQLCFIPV
Chain of Cytochrome P450 2D6 (P10635 whole entry): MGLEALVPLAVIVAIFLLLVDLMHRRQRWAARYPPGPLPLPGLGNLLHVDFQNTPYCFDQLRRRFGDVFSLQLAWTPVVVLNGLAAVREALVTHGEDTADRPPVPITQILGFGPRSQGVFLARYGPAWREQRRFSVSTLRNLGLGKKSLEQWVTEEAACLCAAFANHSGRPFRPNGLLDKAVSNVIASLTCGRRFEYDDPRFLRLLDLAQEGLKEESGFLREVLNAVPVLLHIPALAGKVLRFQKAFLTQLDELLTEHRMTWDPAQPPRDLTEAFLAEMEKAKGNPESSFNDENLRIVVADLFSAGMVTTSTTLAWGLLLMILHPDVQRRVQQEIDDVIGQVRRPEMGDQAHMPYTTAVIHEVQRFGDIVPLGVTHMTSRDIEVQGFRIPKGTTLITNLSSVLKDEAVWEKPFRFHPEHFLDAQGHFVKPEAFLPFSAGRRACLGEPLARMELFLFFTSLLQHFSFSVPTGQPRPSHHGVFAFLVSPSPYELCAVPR
Chain of Cytochrome P450 2C9 (P11712 whole entry): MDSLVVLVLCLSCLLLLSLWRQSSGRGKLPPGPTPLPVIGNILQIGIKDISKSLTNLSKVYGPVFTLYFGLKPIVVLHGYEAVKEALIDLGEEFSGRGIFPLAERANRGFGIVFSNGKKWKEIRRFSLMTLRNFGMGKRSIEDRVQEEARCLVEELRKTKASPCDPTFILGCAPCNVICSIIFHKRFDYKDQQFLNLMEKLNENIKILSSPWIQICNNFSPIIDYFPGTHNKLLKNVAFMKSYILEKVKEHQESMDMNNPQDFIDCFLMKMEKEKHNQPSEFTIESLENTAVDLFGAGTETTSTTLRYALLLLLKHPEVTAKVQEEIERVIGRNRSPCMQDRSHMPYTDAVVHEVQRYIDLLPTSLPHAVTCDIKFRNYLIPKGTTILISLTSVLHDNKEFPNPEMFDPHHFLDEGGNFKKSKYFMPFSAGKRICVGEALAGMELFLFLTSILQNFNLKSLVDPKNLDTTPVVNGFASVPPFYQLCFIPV

Row | Structure (SMILES) | AC50 (Cytochrome P450 2D6) | EC50 [1] | IC50 [2] | other results
1 | OCCNc1nc(SCc2ccccc2)nc2sc3c(c12)CCC3 | 25.1 µM (inconclusive) |  |  | 
2 | O=C(Oc1ccccc1)N1CCC2(CCCN(Cc3ccccc3)C2)CC1 | 10 µM (inconclusive) |  |  | AC50 (Cytochrome P450 3A4): 12.6 µM (inconclusive)
3 | CCCC(c1cc(C(C)(C)C)c(O)cc1C)c1cc(C(C)(C)C)c(O)cc1C | 3.98 µM (inconclusive) |  |  | AC50 (Cytochrome P450 2C19): 6.31 µM (inconclusive); AC50 (Cytochrome P450 2C9): 3.16 µM (inconclusive)
4 | CS(=O)(=O)Nc1cccc(-c2ccc3ncnc(Nc4ccc(F)cc4)c3c2)c1 | 39.8 µM (inconclusive) |  |  | 
5 | Cc1ccc(C(=O)OCn2nnc3ccccc3c2=O)cc1[N+](=O)[O-] |  | > 53 µM (inactive) | > 47.1 µM (inactive) | 
6 | CCOc1cc(N2CCOCC2)c(OCC)cc1NC(=O)C1=NN(c2cccc(C)c2)C(=O)CC1 |  |  |  | EC50 [3]: 13.8 µM (active); EC50 (Streptokinase A): > 150 µM (not active); EC50 (Streptococcus): 123 µM (active)
7 | Cc1ccc(N2CC(C(=O)Nc3nc4ccc(S(C)(=O)=O)cc4s3)CC2=O)cc1 (stereo unspecified) |  |  |  | EC50 [4]: > 195 µM (not active)
8 | Cc1cccc(C)c1OCC(=O)NCc1ccccc1 |  |  |  | EC50 [4]: > 195 µM (not active)
9 | COc1ccc2[nH]cc(CCNc3cc(-c4cccc(C#N)c4)ncn3)c2c1 | 20 µM (inconclusive) |  |  | 
10 | CC(C)(C)c1cc(NCc2ccccn2)n2ncc(-c3ccc(Cl)cc3)c2n1 |  |  |  | EC50 [3]: 2.44 µM (active); EC50 (Streptokinase A): > 150 µM (not active); EC50 (Streptococcus): 3.1 µM (active)
11 | N#C/C(=C\Nc1ccc2c[nH]nc2c1)c1nc(-c2ccccc2)cs1 |  |  |  | EC50 [4]: > 195 µM (not active)
12 | c1ccc2c(NCCN3CCOCC3)nc(-c3ccoc3)nc2c1 | 25.1 µM (inconclusive) |  |  | AC50 (Cytochrome P450 3A4): 15.8 µM (inconclusive)
13 | CCC1(C)Cc2c(sc3nc(SC)nc(S)c23)CO1 (stereo unspecified) |  |  |  | EC50 [3]: 1.84 µM (active); EC50 (Streptokinase A): > 150 µM (not active); EC50 (Streptococcus): > 150 µM (not active)
14 | CC(=O)Nc1ccc(NC(=O)COc2ccc([N+](=O)[O-])cc2)cc1 |  | > 53 µM (inactive) | > 47.1 µM (inactive) | 
15 | CCN(CC)C(=O)C1CCCN(c2ccc([N+](=O)[O-])cc2[N+](=O)[O-])C1 (stereo unspecified) |  |  |  | AC50 [5]: 52.4 µM (active)
16 | CC(NC(=O)COC(=O)c1ccc2c(=O)n3c(nc2c1)CCCCC3)c1ccccc1 (stereo unspecified) |  | > 53 µM (inactive) | > 47.1 µM (inactive) | 
17 | COC(=O)c1ccc(C(NC(=O)c2ccco2)[C@]2(C)C[C@H]2C2CCCCC2)cc1 (stereo partly specified) | 12.6 µM (inconclusive) |  |  | 
18 | COc1ccc(S(=O)(=O)N(C)CC(=O)NC2CCCCC2)cc1OC |  | > 53 µM (inactive) | > 47.1 µM (inactive) | 
19 | COc1ccc(CCNC(=O)CN(c2ccc(OC)c(OC)c2)S(C)(=O)=O)cc1OC |  |  |  | EC50 [4]: > 195 µM (not active)
20 | CC(C)(C)NC(=O)/C(=C/c1ccccc1F)NC(=O)c1ccc([N+](=O)[O-])cc1 |  | > 53 µM (inactive) | > 47.1 µM (inactive) | 

Row | Structure (SMILES) | AC50 (Cytochrome P450 2D6) | EC50 [1] | IC50 [2] | other results
21 | CCOc1ccc(C(=O)NC(=S)Nc2ccc(NC(=O)CC)cc2)cc1[N+](=O)[O-] |  |  |  | EC50 [3]: 4.28 µM (active); EC50 (Streptokinase A): > 150 µM (not active); EC50 (Streptococcus): 64.4 µM (active)
22 | Cc1ccc2c(Cl)cc(Cl)c(OCC(=O)NC(C)(C)C)c2n1 |  |  |  | EC50 [3]: 12.7 µM (active); EC50 (Streptokinase A): > 150 µM (not active); EC50 (Streptococcus): > 150 µM (not active)
23 | COc1cccc(C(C(=O)Nc2ccc(F)cc2)N(C(=O)Cn2nnc3ccccc32)C2CC2)c1 (stereo unspecified) | 25.1 µM (inconclusive) |  |  | 
24 | COc1ccccc1-c1nnc(SC2CCc3ccccc3NC2=O)s1 (stereo unspecified) |  |  |  | EC50 [4]: > 195 µM (not active)
25 | CCn1c(SCC(=O)NC2CCCCC2)nc2c(c1=O)SC(C)C2 (stereo unspecified) | 1.58 µM (inconclusive) |  |  | 
26 | Cc1ccc(C(=O)Nc2nc3ccccc3n3nnnc23)cc1 | 12.6 µM (inconclusive) |  |  | AC50 (Cytochrome P450 2C19): 14.1 µM (inconclusive); AC50 (Cytochrome P450 3A4): 10 µM (inconclusive)
27 | CC(Oc1ccc(Cl)cc1Cl)C(=O)NC1=NN(c2ccccc2)C(=O)C1 (stereo unspecified) |  |  |  | EC50 [3]: 3.04 µM (active); EC50 (Streptokinase A): 123 µM (inconclusive); EC50 (Streptococcus): 6.39 µM (active)
28 | CCOc1ccccc1N1CCN(C(=O)Cc2ccc(S(=O)(=O)N3CCOCC3)s2)CC1 |  | > 53 µM (inactive) | > 47.1 µM (inactive) | 
29 | COc1ccc(S(=O)(=O)N2CCN(C(=O)CCCN3C(=O)NC4(CCCC4)C3=O)CC2)cc1 |  | > 53 µM (inactive) | > 47.1 µM (inactive) | 
30 | CC(=O)Nc1ccc(S(=O)(=O)NCc2csc(C)n2)cc1 |  |  |  | EC50 [4]: > 195 µM (not active)
31 | COc1ccccc1C(=O)NCCn1cc(SCC(=O)Nc2nnc(C)s2)c2ccccc21 | 28.2 µM (inconclusive) |  |  | 
32 | Cc1ccnn2cc3c(=O)n(C)c(=O)n(C)c3c12 | 20 µM (inconclusive) |  |  | AC50 (Cytochrome P450 2C9): 11.2 µM (inconclusive)
33 | CCOC(=O)C1CCCN(C(=O)COC(=O)c2cccs2)C1 (stereo unspecified) |  | > 53 µM (inactive) | > 47.1 µM (inactive) | 
34 | O=C(NC1(C(F)(F)F)C(=O)Nc2c1c(=O)[nH]c(=O)n2Cc1ccccc1)c1ccc(Cl)cc1 (stereo unspecified) |  | > 53 µM (inactive) | > 47.1 µM (inactive) | 
35 | CC1CN(C2CCN(C(=O)c3cccc(Cl)c3)CC2)CC(C)O1 (stereo unspecified) | 0.891 µM (inconclusive) |  |  | AC50 (Cytochrome P450 2C19): 5.62 µM (inconclusive)
36 | CC1CN(S(=O)(=O)c2ccc(C(=O)N3CCc4ccccc43)cc2)CC(C)O1 (stereo unspecified) |  | > 53 µM (inactive) | > 47.1 µM (inactive) | 
37 | COc1ccc(NC(=O)c2nc3nccc(C)n3n2)cc1S(=O)(=O)N1CCOCC1 |  | > 53 µM (inactive) | > 47.1 µM (inactive) | 
38 | COc1ccc(CC(=O)N/N=C(\C)c2ccc(Br)s2)cc1 |  | > 53 µM (inactive) | > 47.1 µM (inactive) | 
39 | CN1[C@@H]2CC[C@H]1C[C@@H](OC(=O)c1c[nH]c3ccccc13)C2 [TROPISETRON] | 31.6 µM (inconclusive) |  |  | 
